The values below are quoted from earlier work in US12691120B2, “Liquid oral formulations for PDE V inhibitors” (LIQMEDS WORLDWIDE LIMITED, priority 2017, dated 2026).

For orientation: bioavailability means the share of a dose that reaches the circulation, judged against a reference dose that is usually intravenous.

Structures can show the parent of a compound that is named as a salt. Where two headings read alike, the source gives them in different places.

For series [1] the following is noted: tablets or oral suspension.
The conditions of series [2]: oral administration.
The conditions of series [3]: measured using rats.
Setting [4] is: EMEA CHMP Assessment Report for Vizarsin.
Setting [5] is: Jordanian Pharmaceutical Manufacturing Co.

Take `CCCc1nn(C)c2c(=O)[nH]c(-c3cc(S(=O)(=O)N4CCN(C)CC4)ccc3OCC)nc12` [Sildenafil citrate]: the absolute bioavailability result in series [1] was “about 41%”. Also, under setting [4], the solubility in acetone result is listed as “insoluble”, the solubility in chloroform result is given as “insoluble”, the “solubility in dimethylsulfoxide (DMSO)” value is given as “soluble” and the solubility in ethanol entry is recorded as “insoluble”. In addition, the solubility in methanol result under setting [4] was “soluble”. Under setting [5], the solubility in ethanol is on record as ~ 1 mg/ml and the “times less soluble in ethanol than in water” value is given as “about 3.5 times”.

As to `CN1CC(=O)N2[C@H](c3ccc4c(c3)OCO4)c3[nH]c4ccccc4c3C[C@@H]2C1=O` [Tadalafil], the water solubility entry was “about 2 μg/mL”. Besides, the “average time required to reach the maximum blood concentration (Cmax)” value in series [2] is 2 h. Also, the bioavailability in series [3] is on record as 20.5%.
